We go through 21 compounds from ChEMBL document CHEMBL5131570, “Discovery of Potent Small-Molecule USP8 Inhibitors for the Treatment of Breast Cancer through Regulating ERα Expression” (J Med Chem, 2022).

Experiment [1] deals with T1, Ubiquitin carboxyl-terminal hydrolase 8 (Homo sapiens, UniProt P40818).
T1 sequence (P40818 whole entry): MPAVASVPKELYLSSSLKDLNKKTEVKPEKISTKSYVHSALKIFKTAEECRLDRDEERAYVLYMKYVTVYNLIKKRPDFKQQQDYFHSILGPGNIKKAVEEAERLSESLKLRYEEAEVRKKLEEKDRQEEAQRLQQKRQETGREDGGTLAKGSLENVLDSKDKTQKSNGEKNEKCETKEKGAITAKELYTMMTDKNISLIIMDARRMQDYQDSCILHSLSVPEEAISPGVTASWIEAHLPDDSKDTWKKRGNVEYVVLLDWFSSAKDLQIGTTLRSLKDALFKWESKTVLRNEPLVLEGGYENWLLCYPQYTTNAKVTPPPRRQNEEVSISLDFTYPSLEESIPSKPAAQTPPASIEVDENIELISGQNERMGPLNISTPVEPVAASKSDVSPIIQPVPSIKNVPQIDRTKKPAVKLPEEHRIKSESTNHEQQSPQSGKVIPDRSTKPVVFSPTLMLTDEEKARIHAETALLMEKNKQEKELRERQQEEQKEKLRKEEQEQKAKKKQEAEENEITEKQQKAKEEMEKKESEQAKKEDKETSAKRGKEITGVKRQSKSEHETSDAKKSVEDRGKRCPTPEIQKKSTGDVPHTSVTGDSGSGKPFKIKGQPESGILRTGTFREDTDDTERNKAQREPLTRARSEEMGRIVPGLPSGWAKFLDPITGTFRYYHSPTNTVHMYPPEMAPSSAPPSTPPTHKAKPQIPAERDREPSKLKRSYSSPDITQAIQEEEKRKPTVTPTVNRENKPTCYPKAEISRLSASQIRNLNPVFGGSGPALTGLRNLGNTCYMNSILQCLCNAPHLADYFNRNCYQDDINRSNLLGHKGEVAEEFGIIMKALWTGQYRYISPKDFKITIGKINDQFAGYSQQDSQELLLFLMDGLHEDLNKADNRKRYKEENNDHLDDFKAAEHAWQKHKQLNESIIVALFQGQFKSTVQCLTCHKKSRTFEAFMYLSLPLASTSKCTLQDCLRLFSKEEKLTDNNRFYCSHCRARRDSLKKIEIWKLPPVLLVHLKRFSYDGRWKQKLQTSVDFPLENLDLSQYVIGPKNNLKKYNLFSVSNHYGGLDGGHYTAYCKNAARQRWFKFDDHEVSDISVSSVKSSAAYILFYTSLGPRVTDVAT
As to the kind of experiment: Inhibition of human full length USP8 overexpressed in baculovirus-infected insect cells using ubiquitin-C-terminal 7-amido-4-methylcoumarin as substrate by fluorescence spectroscopy.

Experiment [2] deals with T1, Ubiquitin carboxyl-terminal hydrolase 8. As to the kind of experiment: Inhibition of N-terminal His6-tagged USP8 (unknown origin) catalytic domain (734 to 1110 residues) expressed in Escherichia coli BL21 (DE3) cells assessed as deubiquitinating activity using ubiquitin-rhodamine -110 as substrate incubated for 30 mins followed by substrate addition measured after 30 mins by ubiquitin-rhodamine-110 based fluorometric assay.

For experiment [3] the target is unchanged. As to the kind of experiment: Binding affinity to N-terminal His6-tagged USP8 catalytic domain (734 to 1110 residues) (unknown origin) expressed in Escherichia coli BL21 (DE3) cells by surface plasmon resonance method. A general note: SPR reads the build-up and loss of mass on a sensor chip optically.
Experiment [4] has as its target NAD(P)H dehydrogenase [quinone] 1 (Homo sapiens) (UniProt P15559). As to the kind of experiment: Substrate activity at NQO1 (unknown origin) assessed as reduction in NADPH level measured per umol of NQO1 at 20 uM in presence of NADPH by absorbance based analysis.
The test system of a further experiment is MCF7. As to the kind of experiment: Antiproliferative activity against human MCF7 cells assessed as reduction in colony formation at 3 uM incubated for 7 days by crystal violet staining based colony formation assay. Type of experiment: functional, cell-based. As to conditions: time 7.0 day.
Experiment [5] has as its target T2, Ubiquitin carboxyl-terminal hydrolase 7 (Homo sapiens, UniProt Q93009). As to the kind of experiment: Inhibition of human full length USP7 overexpressed in baculovirus-infected insect cells using ubiquitin-C-terminal 7-amido-4-methylcoumarin as substrate by fluorescence spectroscopy.
Experiment [6] deals with T1, Ubiquitin carboxyl-terminal hydrolase 8. As to the kind of experiment: Inhibition of N-terminal His6-tagged USP8 (unknown origin) expressed in Escherichia coli BL21 (DE3) cells using ubiquitin-rhodamine -110 as substrate incubated for 15 mins followed by substrate addition measured after 1 hrs by ubiquitin-rhodamine-110 based fluorometric assay.
In experiment [7] the target is T2, Ubiquitin carboxyl-terminal hydrolase 7. As to the kind of experiment: Inhibition of USP7 (unknown origin) […].

Activity calls are given as the source filed them. The calls are words filed in the database; no cut-off is given here.

T2 sequence (Q93009 whole entry): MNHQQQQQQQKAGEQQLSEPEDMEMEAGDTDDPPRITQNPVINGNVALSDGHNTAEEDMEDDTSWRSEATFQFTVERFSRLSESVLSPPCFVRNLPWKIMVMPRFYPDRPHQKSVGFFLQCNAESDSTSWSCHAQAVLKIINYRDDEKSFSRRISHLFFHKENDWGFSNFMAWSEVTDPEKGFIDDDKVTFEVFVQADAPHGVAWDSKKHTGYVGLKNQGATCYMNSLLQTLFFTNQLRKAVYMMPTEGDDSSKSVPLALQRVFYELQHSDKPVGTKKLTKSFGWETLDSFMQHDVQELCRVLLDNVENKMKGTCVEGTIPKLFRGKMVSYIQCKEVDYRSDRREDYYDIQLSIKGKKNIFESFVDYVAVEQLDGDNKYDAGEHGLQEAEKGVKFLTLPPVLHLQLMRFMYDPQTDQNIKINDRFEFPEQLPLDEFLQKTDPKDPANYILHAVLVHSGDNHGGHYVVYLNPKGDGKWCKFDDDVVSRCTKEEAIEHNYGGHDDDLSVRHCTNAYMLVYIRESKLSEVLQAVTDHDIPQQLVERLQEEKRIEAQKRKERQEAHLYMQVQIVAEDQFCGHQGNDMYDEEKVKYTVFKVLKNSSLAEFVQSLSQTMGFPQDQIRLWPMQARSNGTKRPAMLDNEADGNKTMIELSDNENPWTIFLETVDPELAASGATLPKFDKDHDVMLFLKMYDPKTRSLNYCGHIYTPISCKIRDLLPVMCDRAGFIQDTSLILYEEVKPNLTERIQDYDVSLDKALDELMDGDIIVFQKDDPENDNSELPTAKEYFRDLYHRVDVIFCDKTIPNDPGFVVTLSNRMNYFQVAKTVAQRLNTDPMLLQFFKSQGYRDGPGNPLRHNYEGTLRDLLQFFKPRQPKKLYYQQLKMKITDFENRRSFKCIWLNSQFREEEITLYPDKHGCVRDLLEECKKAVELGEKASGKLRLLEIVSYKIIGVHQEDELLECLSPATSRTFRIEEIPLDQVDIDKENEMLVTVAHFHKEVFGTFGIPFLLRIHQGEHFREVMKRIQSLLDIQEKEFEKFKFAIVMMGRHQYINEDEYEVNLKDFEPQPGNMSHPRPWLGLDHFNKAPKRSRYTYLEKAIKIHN
NAD(P)H dehydrogenase [quinone] 1 (Homo sapiens), sequence (P15559 whole entry): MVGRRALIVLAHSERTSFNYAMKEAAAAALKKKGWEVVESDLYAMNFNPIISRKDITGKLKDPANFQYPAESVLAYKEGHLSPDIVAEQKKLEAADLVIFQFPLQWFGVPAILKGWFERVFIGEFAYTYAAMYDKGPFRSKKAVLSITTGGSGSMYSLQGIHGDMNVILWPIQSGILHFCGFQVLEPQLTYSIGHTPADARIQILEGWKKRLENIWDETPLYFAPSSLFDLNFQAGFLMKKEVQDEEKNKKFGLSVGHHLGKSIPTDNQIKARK

As usually defined, the IC50 is the point on the concentration scale where inhibition reaches its midpoint. For the compound `C=CCO/N=C1\c2ccccc2-c2nc(C#N)c(C#N)nc21`, the concentration for half-maximal inhibition (IC50) in experiment [1] came out at 0.56 µM.

In turn, `N#Cc1nc2c(nc1C#N)-c1ccccc1/C2=N\OCc1ccccc1` returned an IC50 in experiment [1] of 0.85 µM.

On to `CCN1CCN(c2ccc(-c3cc(=O)c4c(O)cc(O)c(Oc5c(C)n[nH]c5C)c4o3)cc2)CC1`, for which the IC50 in experiment [2] came to 15.5 µM.

As to `Cc1n[nH]c(C)c1Oc1c(O)cc(O)c2c(=O)cc(-c3ccc(N4CCCNCC4)cc3)oc12`, the IC50 in experiment [2] came to 17.6 µM.

With `Cc1n[nH]c(C)c1Oc1c(O)cc(O)c2c(=O)cc(-c3ccc(N4CCN(C(C)C)CC4)cc3)oc12`, the 50% inhibitory concentration (IC50) in experiment [2] was 16.3 µM.

For `Cc1n[nH]c(C)c1Oc1c(O)cc(O)c2c(=O)cc(-c3ccc(N4CCN(CCO)CC4)cc3)oc12`, in experiment [2], the IC50 came to 23.5 µM.

For `COc1c(O)cc(O)c2c(=O)cc(-c3ccc(N4CCCC4)cc3)oc12`, the IC50 in experiment [2] was found to be 16.2 µM.

As to `COc1c(O)cc(O)c2c(=O)cc(-c3ccc(N4CCOCC4)cc3)oc12`, the IC50 in experiment [2] is 18.3 µM.

As to `CC(C)Oc1c(O)cc(O)c2c(=O)cc(-c3ccc(N4CCCNCC4)cc3)oc12`, the IC50 in experiment [2] came to 24.5 µM.

For the compound `COc1c(O)cc(O)c2c(=O)cc(-c3ccc(N4CCN(C)CC4)cc3)oc12`, in experiment [2], the 50% inhibitory concentration (IC50) turned out to be 16.5 µM.

For `Cc1n[nH]c(C)c1Oc1c(O)cc(O)c2c(=O)cc(-c3ccc(N4CCN(c5ccccc5)CC4)cc3)oc12`, the half-maximal inhibitory concentration (IC50) in experiment [2] was determined as 3.5 µM.

On to `COc1c(O)cc(O)c2c(=O)cc(-c3ccc(N4CCC(O)CC4)cc3)oc12`, for which, in experiment [2], the IC50 came to 36 µM.

As to `COc1c(O)cc(O)c2c(=O)cc(-c3ccc(N4CCN(C=O)CC4)cc3)oc12`, the IC50 in experiment [2] was determined as 2.2 µM.

Regarding `Cc1n[nH]c(C)c1Oc1c(O)cc(O)c2c(=O)cc(-c3ccc(N4CCN(C(=O)c5ccco5)CC4)cc3)oc12`, the IC50 in experiment [2] was 5.1 µM.

Broadly, the Kd is the concentration at which binding is half-saturated. Low readings indicate tighter binding, high ones weaker binding. Consider `COc1c(O)cc(O)c2c(=O)cc(-c3ccc(N4CCCNCC4)cc3)oc12`, for which the IC50 in experiment [2] stood at 31.6 µM. The same compound yielded a dissociation constant Kd in experiment [3] of 43.6 µM.

Consider `CCO/N=C1/c2ccccc2-c2nc(C#N)c(C#N)nc21`, for which the Activity in experiment [4] came out at 1300 µmol/min. For the same compound, the outcome with MCF7 was Active.

In the case of `COc1c(O)cc(O)c2c(=O)cc(-c3ccc(N4CCN(CCO)CC4)cc3)oc12`, in experiment [2], the 50% inhibitory concentration (IC50) worked out at 45.2 µM.

Consider `COc1c(O)cc(O)c2c(=O)cc(-c3ccc(N(CCO)CCO)cc3)oc12`, for which the IC50 in experiment [2] was found to be 43.7 µM.

For the compound `O=c1cc(-c2ccc(N3CCCNCC3)cc2)oc2c(OC3CCCCC3)c(O)cc(O)c12`, the concentration for half-maximal inhibition (IC50) in experiment [2] amounted to 16.2 µM.

With `N#Cc1cc2c(cc1C#N)-c1ccccc1C2=O`, the half-inhibitory concentration (IC50) stood at 3.5 µM in experiment [5] and 0.29 µM in experiment [1].

Consider `COc1ccc(N2CCN(C(=S)Nc3ccc([N+](=O)[O-])cc3)CC2)c(N)c1`, for which the figures for the IC50 in experiment [6] and in experiment [7] were 2.6 µM and 10.5 µM, respectively.
